In US11400107B2, “Cancer treatments” (NuCana plc, priority 2016, dated 2022):
“Also recorded” adds a separate entry of the source.

Key:
[1] = system: Lin^−/CD34^+/CD38^−/CD123^+ cancer stem cells in KG1a cells; test: Immunophenotypic quantification of the leukaemic stem cell compartment in KG1a cells; assay type: cell-based, human; details: for proportion of cancer stem cells as compared to non-stem cancer cells after treatment / low concentration at which the selective reduction of cancer stem cells was still observed / selectivity against cancer stem cells compared to the parent compound: KG1a cells; for proportion of cancer stem cells as compared to non-stem cancer cells after treatment: 72 h; for selectivity for cancer stem cells as opposed to non-stem cancer cells (summary): summary statement of the description
Procedure: The respective abilities of NUC-1031 and gemcitabine to target CSCs were investigated in the AML cell line KG1a.
KG1a cells were cultured for 72 hours in the presence of a wide range of concentrations of each nucleoside analogue and their respective ProTides. Cells were then harvested and labelled with a cocktail of anti-lineage antibodies (PE-cy7), anti-CD34 (FITC), anti-CD38 (PE) and anti-CD123 (PERCP cy5). The sub-population expressing a leukaemic stem cell (LSC) phenotype were subsequently identified and were expressed as a percentage of all viable cells left in the culture. The percentages of stem cells remaining were then plotted on a dose-response graph and the proportion of cancer stem cells was compared across the various concentrations of ProTides and their respective parent compounds, in order to determine if they preferentially target cancer stem cells.
The data obtained in these experiments were evaluated using one way ANOVA. All data was confirmed as Gaussian or a Gaussian approximation using the omnibus K2 test. LD50 values were calculated from the non-linear regression and line of best-fit analysis of the sigmoidal dose-response curves. All statistical analyses were performed using Graphpad Prism 6.0 software (Graphpad Software Inc., San Diego, Calif.).

[2] = system: primary acute myeloid leukaemia (AML) blasts; test: In vitro cytotoxicity assay (LD50) in primary acute myeloid leukaemia cells; assay type: cell-based, human; details: for LD50: primary AML blasts, 48 h, concentration required to kill 50% of the tumour cells in culture; for potency as compared to the respective parent compound (summary): summary statement of the description
Procedure: ProTide compounds, as defined herein, and the comparator ProTide compound NUC-1031 were assayed for their cytotoxic effects on primary cultures of acute myeloid leukaemia (AML) blasts. LD50 values (the concentration required to kill 50% of the tumour cells in culture) were calculated in respect of the ProTide compounds of the invention, and the parent compounds from which they are derived. […] The LD50 values of the ProTide compounds as defined herein (and their parent compounds) were compared with the comparator ProTide NUC-1031 and its parent compound gemcitabine.
Bone marrow samples were collected in ethylenediaminetetraacetic acid (EDTA) from newly diagnosed, previously untreated, acute myeloid leukaemia (AML) patients. AML blasts were enriched by density gradient centrifugation using Histopaque (Sigma, Poole, UK) and were subsequently maintained in Roswell Park Memorial Institute medium (RPMI) supplemented with 10% foetal bovine serum (FBS). Cells were treated with ProTide compounds (either as encompassed by the present invention, or the comparator ProTide NUC-1031) or with the ProTides' parent compounds at a range of experimental concentrations, and incubated for 48 h. All cultures were maintained at 37° C. in a 5% CO2 humidified atmosphere.
Cells were harvested and labelled with CD34-fluorescein isothiocyanate (FITC) (BD Biosciences, Buckingham, UK) and then resuspended in 200 μl of binding buffer containing 4 μl of annexin V labelled with allophycocyanin (APC) (eBioscience Ltd, Hatfield, UK). Apoptosis was quantified in the CD34^+ AML cells using an Accuri C6 flow cytometer (Becton Dickinson, CA, USA). At least 10,000 events were acquired and data were subsequently analysed using FlowJo software (Tree Star Inc., Ashland, Oreg., USA). All LD50 values (concentration of drug required to kill 50% of cells) were derived from the dose-response curves.

C[C@H](NP(=O)(OC[C@H]1O[C@@H](n2cc(F)c(=O)[nH]c2=O)CC1O)Oc1cccc2ccccc12)C(=O)OCCC(C)(C)C (stereo partly drawn) [CPF-585]
proportion of cancer stem cells as compared to non-stem cancer cells after treatment [1]: reduction in the proportion of cancer stem cells | selectivity for cancer stem cells as opposed to non-stem cancer cells (summary) [1]: selectively target for cancer stem cells | LD50 [2]: CPF 585 0.79 μM

C[C@H](NP(=O)(OC[C@H]1O[C@@H](n2cnc3c(N)nc(Cl)nc32)[C@H](F)C1O)Oc1cccc2ccccc12)C(=O)OCC(C)(C)C (stereo partly drawn) [CPF-720]
low concentration at which the selective reduction of cancer stem cells was still observed [1]: approximately 6×10^−8 M | proportion of cancer stem cells as compared to non-stem cancer cells after treatment [1]: reduction in the proportion of cancer stem cells | selectivity for cancer stem cells as opposed to non-stem cancer cells (summary) [1]: selectively target for cancer stem cells

CCCCCOC(=O)[C@@H](C)NP(=O)(OC[C@H]1O[C@@H](n2cnc3c(N)nc(Cl)nc32)[C@H](F)C1O)Oc1cccc2ccccc12 (stereo partly drawn) [CPF-727]
low concentration at which the selective reduction of cancer stem cells was still observed [1]: approximately 6×10^−8 M | proportion of cancer stem cells as compared to non-stem cancer cells after treatment [1]: reduction in the proportion of cancer stem cells | selectivity for cancer stem cells as opposed to non-stem cancer cells (summary) [1]: selectively target for cancer stem cells

Nc1nc(Cl)nc2c1ncn2[C@@H]1O[C@H](CO)[C@@H](O)[C@@H]1F [Clofarabine]
low concentration at which the selective reduction of cancer stem cells was still observed [1]: approximately 6×10^−8 M | proportion of cancer stem cells as compared to non-stem cancer cells after treatment [1]: reduction in the proportion of cancer stem cells

CCOC(=O)[C@H](C)NP(=O)(OC[C@H]1O[C@@H](n2cnc3c(N)nc(F)nc32)[C@H](O)C1O)Oc1cccc2ccccc12 (stereo partly drawn) [CPF-544]
selectivity against cancer stem cells compared to the parent compound [1]: comparable | proportion of cancer stem cells as compared to non-stem cancer cells after treatment [1]: significant decrease in the proportion of cancer stem cells | selectivity for cancer stem cells as opposed to non-stem cancer cells (summary) [1]: selectively target for cancer stem cells; also recorded: high selectivity for cancer stem cells

C[C@H](NP(=O)(OC[C@H]1O[C@@H](n2cc(F)c(=O)[nH]c2=O)CC1O)Oc1cccc2ccccc12)C(=O)OCc1ccccc1 (stereo partly drawn) [CPF-373 (mix)]
LD50 [2]: CPF 373 (mix) 0.053 μM

C[C@H](NP(=O)(OC[C@H]1O[C@@H](n2cnc3c(=S)[nH]c(N)nc32)[C@@H](O)C1O)Oc1cccc2ccccc12)C(=O)OCc1ccccc1 (stereo partly drawn) [CPF-775]
selectivity against cancer stem cells compared to the parent compound [1]: statistically significant increases in selectivity at certain concentrations | proportion of cancer stem cells as compared to non-stem cancer cells after treatment [1]: strong reduction in the proportion of cancer stem cells | selectivity for cancer stem cells as opposed to non-stem cancer cells (summary) [1]: selectively target for cancer stem cells; also recorded: high selectivity for cancer stem cells

C[C@H](NP(=O)(OC[C@H]1O[C@@H](n2cc(F)c(=O)[nH]c2=O)CC1O)Oc1cccc2ccccc12)C(=O)OCc1ccccc1 (single isomer, unassigned) [CPF-373 (Iso A)]
low concentration at which the selective reduction of cancer stem cells was still observed [1]: approximately 8×10^−8 M | proportion of cancer stem cells as compared to non-stem cancer cells after treatment [1]: reduction in the proportion of cancer stem cells | selectivity for cancer stem cells as opposed to non-stem cancer cells (summary) [1]: selectively target for cancer stem cells; also recorded: high selectivity for cancer stem cells | LD50 [2]: CPF 373 (Iso A) 0.052 μM | potency as compared to the respective parent compound (summary) [2]: greater potency

C[C@H](NP(=O)(Oc1cccc2ccccc12)OC1C[C@H](n2cnc3c(N)nc(Cl)nc32)O[C@@H]1CO)C(=O)OCc1ccccc1 (stereo partly drawn) [CPF-791]
selectivity against cancer stem cells compared to the parent compound [1]: greater selectivity | proportion of cancer stem cells as compared to non-stem cancer cells after treatment [1]: reduction in the proportion of cancer stem cells | selectivity for cancer stem cells as opposed to non-stem cancer cells (summary) [1]: selectively target for cancer stem cells

C[C@H](NP(=O)(OC[C@H]1O[C@@H](n2cnc3c(N)nc(Cl)nc32)[C@H](F)C1O)Oc1ccccc1)C(=O)OCc1ccccc1 (stereo partly drawn) [CPF-448]
low concentration at which the selective reduction of cancer stem cells was still observed [1]: approximately 6×10^−8 M | selectivity against cancer stem cells compared to the parent compound [1]: greater selectivity | proportion of cancer stem cells as compared to non-stem cancer cells after treatment [1]: reduction in the proportion of cancer stem cells | selectivity for cancer stem cells as opposed to non-stem cancer cells (summary) [1]: selectively target for cancer stem cells; also recorded: high selectivity for cancer stem cells

Nc1nc(Cl)nc2c1ncn2[C@H]1C[C@H](O)[C@@H](CO)O1 [Cladribine]
proportion of cancer stem cells as compared to non-stem cancer cells after treatment [1]: reduction in the proportion of cancer stem cells

Nc1ccn([C@@H]2O[C@H](CO)[C@@H](O)C2(F)F)c(=O)n1 [Gemcitabine]
LD50 [2]: Gemcitabine 1.4 μM

C[C@H](NP(=O)(OC[C@H]1O[C@@H](n2cnc3c(=S)[nH]cnc32)[C@@H](O)C1O)Oc1cccc2ccccc12)C(=O)OCC(C)(C)C (stereo partly drawn) [CPF-762]
selectivity against cancer stem cells compared to the parent compound [1]: greater selectivity | proportion of cancer stem cells as compared to non-stem cancer cells after treatment [1]: reduction of the proportion of cancer stem cells | selectivity for cancer stem cells as opposed to non-stem cancer cells (summary) [1]: selectively target for cancer stem cells

C[C@H](NP(=O)(OC[C@H]1O[C@@H](n2cc(F)c(=O)[nH]c2=O)CC1O)Oc1cccc2ccccc12)C(=O)OCc1ccccc1 (single isomer, unassigned) [CPF-373 (Iso B)]
low concentration at which the selective reduction of cancer stem cells was still observed [1]: approximately 8×10^−8 M | proportion of cancer stem cells as compared to non-stem cancer cells after treatment [1]: reduction in the proportion of cancer stem cells | selectivity for cancer stem cells as opposed to non-stem cancer cells (summary) [1]: selectively target for cancer stem cells; also recorded: high selectivity for cancer stem cells | LD50 [2]: CPF 373 (Iso B) 0.055 μM | potency as compared to the respective parent compound (summary) [2]: greater potency

C[C@H](NP(=O)(Oc1ccccc1)OC1C[C@H](n2cnc3c(N)nc(Cl)nc32)O[C@@H]1CO)C(=O)OCc1ccccc1 (stereo partly drawn) [CPF-793]
low concentration at which the selective reduction of cancer stem cells was still observed [1]: approximately 6×10^−8 M | selectivity against cancer stem cells compared to the parent compound [1]: greater selectivity; also recorded: statistically significant | proportion of cancer stem cells as compared to non-stem cancer cells after treatment [1]: reduction in the proportion of cancer stem cells; also recorded: particularly striking | selectivity for cancer stem cells as opposed to non-stem cancer cells (summary) [1]: selectively target for cancer stem cells; also recorded: high selectivity for cancer stem cells

C[C@H](NP(=O)(OC[C@H]1O[C@@H](n2cnc3c(=S)[nH]cnc32)[C@@H](O)C1O)Oc1cccc2ccccc12)C(=O)OCc1ccccc1 (stereo partly drawn) [CPF-761]
selectivity against cancer stem cells compared to the parent compound [1]: greater selectivity; also recorded: most selective; also recorded: increase in selectivity was statistically significant | proportion of cancer stem cells as compared to non-stem cancer cells after treatment [1]: reduction of the proportion of cancer stem cells | selectivity for cancer stem cells as opposed to non-stem cancer cells (summary) [1]: selectively target for cancer stem cells

C[C@H](NP(=O)(OC[C@H]1O[C@@H](n2cnc3c(N)nc(F)nc32)[C@H](O)C1O)Oc1ccccc1)C(=O)OCc1ccccc1 (stereo partly drawn) [CPF-682]
selectivity against cancer stem cells compared to the parent compound [1]: comparable | proportion of cancer stem cells as compared to non-stem cancer cells after treatment [1]: significant decrease in the proportion of cancer stem cells | selectivity for cancer stem cells as opposed to non-stem cancer cells (summary) [1]: selectively target for cancer stem cells; also recorded: high selectivity for cancer stem cells

OC[C@H]1O[C@@H](n2cnc3c(S)ncnc32)[C@H](O)[C@@H]1O [Thioinosine]
proportion of cancer stem cells as compared to non-stem cancer cells after treatment [1]: reduction of the proportion of cancer stem cells
